Measured values taken from US20230129485A1, “SYSTEM AND METHOD FOR DETERMINING MATERIAL PROPERTIES OF MOLECULAR SYSTEMS FROM AN AB-INITIO PARAMETERIZED FORCE-FIELD” (InterX, Inc., priority 2021, published 2023).

Experiments:
[1] = Table 5; free energy of hydration, GAFF prediction taken from literature; cited from earlier work
[2] = Free energy of hydration predicted by polarizable AMOEBA force field, from literature; conditions: Table 5; error of AMOEBA hydration free energy vs experiment
[3] = Free energy of hydration by COSMO implicit solvent model (MolPro ver. 2012); conditions: absolute error vs Exp (hydration)
Outline: (§1)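 Implicit-solvent predictions of hydration free energy. MolPro supplied the COSMO solvation energies across the dataset. Predicted SMD and PCM values were received rather than computed here. Coverage for SMD, PCM and COSMO-RS matches the QM-parameterized force-field subset.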

[4] = Free energy of hydration predicted with the QM-parameterized force field model (ARROW FF), classical MD and PIMD simulation in a water box; conditions: for water Arrow MD Error / water Arrow PIMD8 Error: Table 3; for water Arrow MD Error: absolute error of MD hydration free energy vs experiment; for water Arrow PIMD8 Error: absolute error of PIMD8 hydration free energy vs experiment; for Arrow error: Table 5, error of Arrow PIMD8 hydration free energy vs experiment; for Arrow PIMD8 Error: absolute error vs Exp (hydration)
Outline: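 Solute decoupled from solvent in a 32×32×32 Å3 water box (PME, 9 Å cutoffs), electrostatics, exchange-repulsion and dispersion switched off together over 15 lambda points with soft-coring. Steepest-descent minimization, 50 ps equilibration, 1 ns NPT production at 1 atm; classical and path-integral MD. Free energy from BAR and TI.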

[5] = Free energy of hydration by COSMO-RS
Outline: as §1

[6] = Free energy of hydration by Solvation Model Dielectric (SMD) implicit solvent model; conditions: absolute error vs Exp (hydration)
Outline: as §1

[7] = free energy of hydration, experimental, cited from earlier work; for water Exp (hydration): Table 3; for Exp (hydration): Table 5
[8] = implicit solvent model, values received; cited from earlier work
[9] = Free energy of hydration by Polarizable Continuum Model (PCM); conditions: absolute error vs Exp (hydration)
Outline: as §1

[10] = Free energy of hydration predicted by General Amber Force Field (GAFF), from literature; conditions: Table 5; error of GAFF hydration free energy vs experiment
[11] = Table 3; free energy of solvation in cyclohexane, experimental; cited from earlier work
[12] = implicit solvent model, values received; cited from earlier work; remark: listed apart in the source
[13] = Table 5; free energy of hydration, AMOEBA prediction taken from literature; cited from earlier work
[14] = CHEX/H2O partition coefficient (log D) predicted with the QM-parameterized force field model (ARROW FF); conditions: Table 3
Outline: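 Cyclohexane/water partition coefficients were predicted by molecular simulation with a QM-parameterized force field, with bonded force constants and equilibrium values fitted to MP2/aug-cc-pVTZ energies. Solutes carried neutral functional groups, and results from four independent groups were averaged.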

[15] = Table 3; CHEX/H2O partition coefficient, experimental; cited from earlier work

| SMILES | GAFF [1] [kcal/mol] | AMOEBA error [2] [kcal/mol] | COSMO/Molpro Error [3] [kcal/mol] | water Arrow MD Error [4] [kcal/mol] | water Arrow PIMD8 Error [4] [kcal/mol] | Arrow error [4] [kcal/mol] | Arrow PIMD8 Error [4] [kcal/mol] | COSMO-RS error [5] [kcal/mol] | SMD Error [6] [kcal/mol] | water Exp (hydration) [7] [kcal/mol] | Exp (hydration) [7] [kcal/mol] | SMD free energy of hydration [8] [kcal/mol] | PCM Error [9] [kcal/mol] | GAFF error [10] [kcal/mol] | CHEX Exp (solvation) [11] [kcal/mol] | PCM free energy of hydration [12] [kcal/mol] | AMOEBA [13] [kcal/mol] | log D Arrow MD Error ([14]; absolute error of MD log D vs experiment) | log D Arrow PIMD Error ([14]; absolute error of PIMD log D vs experiment) | Exp (log D) [15] |
| --- | --- | --- | --- | --- | --- | --- | --- | --- | --- | --- | --- | --- | --- | --- | --- | --- | --- | --- | --- | --- |
| c1ccccc1 [Benzene] | -0.70 | 0.02 | 2.32 | 0.58 | 0.17 | 0.17 | 0.17 | 0.01 | 0.18 | -0.88 | -0.88 | -0.70 | 0.72 | 0.18 | -4.19 | -1.60 | -0.86 |  |  |  |
| C=CCC [But-1-ene] | 2.48 | 0.55 | 3.14 | 0.54 | 0.25 | 0.25 | 0.25 | 0.36 | 0.18 | 1.38 | 1.38 | 1.20 | 2.18 | 1.10 |  | -0.80 | 0.83 |  |  |  |
| CNC [dimethylamine] | -3.11 | 1.26 | 0.57 | 1.38 | 0.23 | 0.23 | 0.23 | 2.12 | 1.10 | -4.30 | -4.30 | -3.20 | 2.30 | 1.19 |  | -2.00 | -3.04 |  |  |  |
| CCN [ethylamine] | -3.14 | 0.17 | 1.30 | 1.03 | 0.12 | 0.12 | 0.12 | 0.30 | 0.70 | -4.50 | -4.50 | -3.80 | 1.70 | 1.36 | -2.13 | -2.80 | -4.33 | 0.69 | 0.08 | −1.74 |
| COC [DiMethylEther] | -0.85 | 0.31 | 1.99 | 0.87 | 0.37 | 0.37 | 0.37 |  | 1.31 | -1.91 | -1.91 | -0.60 | 0.11 | 1.06 |  | -1.80 | -2.22 |  |  |  |
| CSC [DiMethylSulfide] | -1.85 | 0.31 | 2.61 | 0.59 | 0.16 | 0.16 | 0.16 |  | 1.24 | -1.54 | -1.54 | -0.30 | 0.56 | 0.31 |  | -2.10 | -1.85 |  |  |  |
| c1c[nH]cn1 [Imidazole] | -7.85 | 0.65 | 3.71 | 0.81 | 0.29 | 0.29 | 0.29 | 1.30 | 0.60 | -9.6 | -9.60 | -9.00 | 2.90 | 1.75 |  | -6.70 | -10.25 |  |  |  |
